Source: patent publication US11952349B2, “Anti-cancer nuclear hormone receptor-targeting compounds” (Nuvation Bio Inc., priority 2019, dated 2024)
pIC50: −log10 of the molar value. Like-named read-outs stand apart in the source and are kept apart here.

What was measured:
[1] = target: Human recombinant PARP1 (Homo sapiens, UniProt P09874); experiment: RBC HotSpot PARP1 assay (radioisotope-based filter binding); format: biochemical
Experimental: The following methods are for evaluating the in vitro biology properties of the test articles. • a. RBC HotSpot Poly(ADP-ribose) Polymerases 1 (PARP1) and Poly(ADP-ribose) Polymerases 2 (PARP2) Assays: The assay was conducted at Reaction Biology Corporation (RBC; Malvern, PA). The assay principle is radioisotope-based filter binding assay where incorporation of radioisotope-labeled NAD^+ into the substrate captured on filter is detected after washout free NAD^+. Data were analyzed using Excel and GraphPad Prism software for IC50 curve fits. Each assay was conducted with PJ34 as a positive control. PARP1 assay: Human recombinant PARP1 at a final concentration of 2.5 nM was combined with histone H4 (20 μM) and test articles at various concentrations in reaction buffer (50 mM Tris-HCL, pH 8.0, 50 mM NaCl, 10 mM MgCl2, 1 mM DTT, 1% DMSO, and 20 μg/mL activated DNA). The solution was inoculated for 20 min at room temperature and the reaction initiated by adding [adenylate-^32P]-Nicotinamide Adenine Dinucleotide, ^32P-NAD^+ at a final concentration of 10 μM. After incubation for 2 hrs at room temperature, the reaction mixture was filtered and washed with 0.75% phosphoric acid for radioactivity detection. • ii. PARP2 assay: Human recombinant PARP2 at a final concentration of 2.5 nM was combined with histone H3 (20 μM) and test articles at various concentrations in reaction buffer (50 mM Tris-HCL, pH 8.0, 50 mM NaCl, 10 mM MgCl2, 1 mM DTT, 1% DMSO, and 20 μg/mL activated DNA). The solution was inoculated for 20 min at room temperature and the reaction was initiated by adding [adenylate-^32P]-Nicotinamide Adenine Dinucleotide, ^32P-NAD^+ at a final concentration of 10 μM. After incubation for 2 hrs at room temperature, the reaction mixture was filtered and washed with 0.75% phosphoric acid for radioactivity detection. • b. AR binding assay: AR in LNCaP cytosol was used for determining the binding affinity of test articles and the reference compound—progesterone (Sigma, Cat: E2785, St. Louis, MO). IC50 s were determined using 8 concentrations/compound. Cytosol is plated at 200 μg/well (100 μL) into a 96-well conical polypropylene plate (Agilent, Cat: 5042-1385, Santa Clara, CA) and mixed with 3 μL of test compound. After adding 100 μL of ^3H-methyltrienolone (PerkinElmer, Cat: NET590250UC, San Jose, CA), the plate was sealed and shaken at 300 rpm at 4° C. for 24 hours. Post incubation, 100 μL of radioligand adsorption buffer containing 10 mM Tris-HCl, pH 7.4; 1.5 mM EDTA; 1 mM DTT; 0.25% charcoal; 0.0025% dextran was added to individual wells. Plate was shaken for 15 min at 4° C. followed by centrifugation at 3000 rpm for 30 min at 4° C. 150 μL of supernatant is transferred into scint-tube (PerkinElmer, Cat: 6000192) and mixed with 2 mL of Ultima Gold Cocktail (PerkinElmer, Cat: 6013329). Radioactivity is counted using a TriCarb 2910 TR scintillation counter (PerkinElmer). Inhibition of the radioactivity by test articles was calculated using the equation below: % Inhibition=(1−(Assay well−Average_LC)/(Average_HC−Average_LC))×100%. • IC50 values (Table 6) were calculated and graphed using the model “log(inhibitor) vs. response—Variable slope” included in GraphPad Prism 5 (San Diego, CA). The Ki values were further calculated using the equation below where [L] is the radioligand concentration (1 nM) used in this study. Kd value was 0.332 nM. Ki=IC50/(1+[L]/Kd) • c. AR transactivation: Human AR cloned into a CMV vector backbone is used for the transactivation study. HEK-293 cells are plated at 80,000 cells per well of a 24 well plate in DME+5% csFBS. Twenty four hours later, the cells are transfected using Lipofectamine (Invitrogen, Carlsbad, CA) with 0.25 μg GRE-LUC, 0.01 μg CMV-LUC (renilla luciferase) and 25 ng of the AR in OPTIMEM medium. The cells are treated 24 hrs after transfection with various ligands (10^−12 to 10^−5 M final concentrations) and luciferase assay performed 48 hours after transfection. […]

[2] = target: T1, full-length androgen receptor (Homo sapiens, UniProt P10275); experiment: AR antagonism assay (HEK293, testosterone 1 nM, Steady-glo); format: cell-based
T1 construct: HEK293 cells stably expressing the full-length androgen receptor; expressed in transfected cells
T1 sequence (P10275 1-920): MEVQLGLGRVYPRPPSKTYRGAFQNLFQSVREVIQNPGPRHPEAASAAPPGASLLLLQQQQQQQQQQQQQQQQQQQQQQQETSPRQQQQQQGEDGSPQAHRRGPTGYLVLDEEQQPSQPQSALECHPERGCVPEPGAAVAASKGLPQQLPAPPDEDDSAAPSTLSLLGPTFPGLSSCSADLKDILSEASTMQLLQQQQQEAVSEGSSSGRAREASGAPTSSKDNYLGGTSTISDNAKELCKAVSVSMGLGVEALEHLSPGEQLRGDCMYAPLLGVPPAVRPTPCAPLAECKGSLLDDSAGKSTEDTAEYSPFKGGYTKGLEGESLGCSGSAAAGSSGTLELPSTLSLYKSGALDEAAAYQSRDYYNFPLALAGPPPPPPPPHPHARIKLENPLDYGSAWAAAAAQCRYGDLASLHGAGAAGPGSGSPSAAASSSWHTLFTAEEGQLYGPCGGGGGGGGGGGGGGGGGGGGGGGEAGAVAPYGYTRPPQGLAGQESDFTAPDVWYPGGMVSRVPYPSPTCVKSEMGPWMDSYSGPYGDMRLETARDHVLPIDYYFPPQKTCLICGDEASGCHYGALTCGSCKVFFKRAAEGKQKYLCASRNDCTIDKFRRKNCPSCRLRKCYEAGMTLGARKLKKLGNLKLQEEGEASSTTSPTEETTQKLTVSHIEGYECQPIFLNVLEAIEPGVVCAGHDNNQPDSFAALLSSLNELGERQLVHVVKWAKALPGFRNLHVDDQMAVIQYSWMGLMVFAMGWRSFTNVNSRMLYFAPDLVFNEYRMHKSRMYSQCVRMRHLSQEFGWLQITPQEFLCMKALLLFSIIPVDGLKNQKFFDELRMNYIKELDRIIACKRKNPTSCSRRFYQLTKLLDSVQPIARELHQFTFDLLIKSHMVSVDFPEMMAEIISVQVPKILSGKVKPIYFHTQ
Experimental: AR antagonism assay: To evaluate AR antagonist activity, test compound was added to the assay plate (top dose 10 μM, 3 fold serial dilution, 10 point dose response). HEK293 cells stably expressing the full-length androgen receptor were seeded at a density of 20000 cells/well in the assay plate. The assay plate was then incubated at room temperature for 10 minutes and at 37° C., 5% CO2 for 20 minutes. Testosterone was added to the assay plate at 1 nM final concentration and the assay plate was incubated at 37° C., 5% CO2 for 20 h. After the incubation period, Steady-glo was added to the assay plate and mixed at room temperature for 20 minutes on an orbital shaker, before reading out on the EnVision plate reader.

[3] = Table 8, testosterone 1 nM, read-out: AR antagonism
[4] = Table 7, testosterone 1 nM, read-out: AR antagonism

Chain of Human recombinant PARP1 (P09874 whole entry): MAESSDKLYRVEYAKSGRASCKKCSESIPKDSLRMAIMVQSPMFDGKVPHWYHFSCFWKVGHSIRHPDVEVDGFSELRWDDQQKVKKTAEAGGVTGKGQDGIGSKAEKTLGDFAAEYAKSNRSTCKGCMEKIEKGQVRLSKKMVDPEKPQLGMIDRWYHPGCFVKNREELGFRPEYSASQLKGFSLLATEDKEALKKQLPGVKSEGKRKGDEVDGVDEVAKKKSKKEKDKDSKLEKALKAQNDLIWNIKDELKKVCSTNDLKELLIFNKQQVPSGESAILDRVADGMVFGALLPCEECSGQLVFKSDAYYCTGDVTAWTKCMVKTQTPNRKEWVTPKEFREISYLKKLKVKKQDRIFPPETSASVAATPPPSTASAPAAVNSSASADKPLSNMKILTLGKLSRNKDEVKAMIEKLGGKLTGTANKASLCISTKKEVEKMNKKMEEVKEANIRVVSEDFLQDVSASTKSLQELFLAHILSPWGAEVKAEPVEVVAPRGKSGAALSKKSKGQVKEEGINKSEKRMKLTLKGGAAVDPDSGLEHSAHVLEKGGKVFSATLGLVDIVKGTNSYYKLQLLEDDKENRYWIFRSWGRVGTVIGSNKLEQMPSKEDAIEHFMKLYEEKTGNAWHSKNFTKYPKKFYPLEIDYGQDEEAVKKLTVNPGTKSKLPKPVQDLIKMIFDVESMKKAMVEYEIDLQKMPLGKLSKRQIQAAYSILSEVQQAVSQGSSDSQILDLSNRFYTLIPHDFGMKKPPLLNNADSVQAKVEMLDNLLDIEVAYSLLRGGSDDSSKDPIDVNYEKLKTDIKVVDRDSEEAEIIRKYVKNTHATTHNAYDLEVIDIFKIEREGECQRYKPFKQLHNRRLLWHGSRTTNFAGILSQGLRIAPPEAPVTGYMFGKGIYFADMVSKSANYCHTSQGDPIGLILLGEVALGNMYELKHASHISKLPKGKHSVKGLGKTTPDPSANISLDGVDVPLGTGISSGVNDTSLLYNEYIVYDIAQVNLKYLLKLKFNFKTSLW

pIC50 [2, 3] | Compound | pIC50 ([1]; Table 9, read-out: PARP1) | pIC50 [2] | pIC50 ([1]; Table 5, in vitro results, read-out: PARP1 IC50) | pIC50 [2, 4]
– | C[C@@]12CCC(=O)C[C@H]1CC[C@H]1[C@H]2CC[C@]2(C)[C@@H]1CC[C@H]2OCCCCCCNC(=O)c1cc(Cc2n[nH]c(=O)c3ccccc23)ccc1F (stereo in doubt) [Compound 1426, N-(6-((5R,8S,9R,10R,13R,14R,17R)-10,13-dimethyl-3-oxohexadecahydro-1H-cyclopenta[a]phenanthren-17-yloxy)hexyl)-2-fluoro-5-((4-oxo-3,4-dihydrophthalazin-1-yl)methyl)benzamide] | < 7.00 | 6.00 to 7.00 | – | –
6.00 to 7.00 | CC#C[C@]1(O)CC[C@H]2[C@@H]3CCC4=CC(=O)CCC4=C3[C@@H](c3ccc(N(C)CCCCCC(=O)N4CCN(C(=O)c5cc(Cc6n[nH]c(=O)c7ccccc67)ccc5F)CC4)cc3)C[C@@]21C [Compound 135, 4-(4-fluoro-3-(4-(6-((4-((8S,11R,13S,14S,17S)-17-hydroxy-13-methyl-3-oxo-17-(prop-1-ynyl)-2,3,6,7,8,11,12,13,14,15,16,17-dodecahydro-1H-cyclopenta[a]phenanthren-11-yl)phenyl)(methyl)amino)hexanoyl)piperazine-1-carbonyl)benzyl)phthalazin-1(2H)-one] | 8.00 to 9.00 | – | – | –
– | C[C@]12C[C@H](CCCCCC(=O)N3CCN(C(=O)c4cc(Cc5n[nH]c(=O)c6ccccc56)ccc4F)CC3)C3=C4CCC(=O)C=C4CC[C@H]3[C@@H]1CCC2O (stereo partly drawn) [Compound 138, 4-(4-fluoro-3-(4-(6-((8S,11S,13S,14S)-17-hydroxy-13-methyl-3-oxo-2,3,6,7,8,11,12,13,14,15,16,17-dodecahydro-1H-cyclopenta[a]phenanthren-11-yl)hexanoyl)piperazine-1-carbonyl)benzyl)phthalazin-1(2H)-one] | > 9.00 | 6.00 to 7.00 | – | –
– | Cn1ncnc1C1c2n[nH]c(=O)c3cc(F)cc(c23)N[C@@H]1c1ccc(NC(=O)CCCCCO[C@@H]2CC[C@H]3[C@@H]4CC[C@H]5CCCC[C@]5(C)[C@H]4CC[C@]23C)cc1 (stereo partly drawn) [Compound 1128, 6-((5R,8R,9S,10S,13S,14S,17R)-10,13-dimethylhexadecahydro-1H-cyclopenta[a]phenanthren-17-yloxy)-N-(4-((8S)-5-fluoro-9-(1-methyl-1H-1,2,4-triazol-5-yl)-3-oxo-3,7,8,9-tetrahydro-2H-pyrido[4,3,2-de]phthalazin-8-yl)phenyl)hexanamide] | – | – | 6.60 | 5.00 to 6.00
6.00 to 7.00 | CC(=O)O[C@]1(C(C)=O)CC[C@H]2[C@@H]3CCC4=CC(=O)CCC4=C3[C@@H](c3ccc(N(C)CCCCCC(=O)N4CCN(C(=O)c5cc(Cc6n[nH]c(=O)c7ccccc67)ccc5F)CC4)cc3)C[C@@]21C [Compound 1378, (8S,11R,13S,14S,17R)-17-acetyl-11-(4-((6-(4-(2-fluoro-5-((4-oxo-3,4-dihydrophthalazin-1-yl)methyl)benzoyl)piperazin-1-yl)-6-oxohexyl)(methyl)amino)phenyl)-13-methyl-3-oxo-2,3,6,7,8,11,12,13,14,15,16,17-dodecahydro-1H-cyclopenta[a]phenanthren-17-yl acetate] | 8.00 to 9.00 | – | – | –
< 5.00 | CC(=O)O[C@]1(C(C)=O)CC[C@H]2[C@@H]3CCC4=CC(=O)CCC4=C3[C@@H](c3ccc(N(C)CCCCCC(=O)NCCOCCOCC(=O)N4CCN(C(=O)c5cc(Cc6n[nH]c(=O)c7ccccc67)ccc5F)CC4)cc3)C[C@@]21C [Compound 1384, (8S,11R,13S,14S,17R)-17-acetyl-11-(4-((6-(2-(2-(2-(4-(2-fluoro-5-((4-oxo-3,4-dihydrophthalazin-1-yl)methyl)benzoyl)piperazin-1-yl)-2-oxoethoxy)ethoxy)ethylamino)-6-oxohexyl)(methyl)amino)phenyl)-13-methyl-3-oxo-2,3,6,7,8,11,12,13,14,15,16,17-dodecahydro-1H-cyclopenta[a]phenanthren-17-yl acetate] | 8.00 to 9.00 | – | – | –
– | C[C@]12Cc3cn[nH]c3C[C@@H]1CC[C@@H]1[C@@H]2CC[C@]2(C)[C@@H](OCCCCCC(=O)N3CCN(C(=O)c4cc(Cc5n[nH]c(=O)c6ccccc56)ccc4F)CC3)CC[C@@H]12 [Compound 1394, 4-(3-(4-(6-(((1S,3aS,3bR,5aS,10aS,10bS,12aS)-10a,12a-dimethyl-1,2,3,3a,3b,4,5,5a,6,7,10,10a,10b,11,12,12a-hexadecahydrocyclopenta[5,6]naphtho[1,2-f]indazol-1-yl)oxy)hexanoyl)piperazine-1-carbonyl)-4-fluorobenzyl)phthalazin-1(2H)-one] | 7.00 to 8.00 | – | – | 5.00 to 6.00

Compound | pIC50 [2, 3] | pIC50 ([1]; Table 9, read-out: PARP1) | pIC50 [2] | pIC50 ([1]; Table 5, in vitro results, read-out: PARP1 IC50) | pIC50 [2, 4]
C[C@]12CC[C@H]3[C@@H](CCC4=CC(=O)CC[C@@]43C)[C@@H]1CC[C@@H]2C(=O)COCCCCCC(=O)N1CCN(C(=O)c2cc(Cc3n[nH]c(=O)c4ccccc34)ccc2F)CC1 [Compound 1386, 4-(3-(4-(6-(2-((8S,9S,10R,13S,14S,17S)-10,13-dimethyl-3-oxo-2,3,6,7,8,9,10,11,12,13,14,15,16,17-tetradecahydro-1H-cyclopenta[a]phenanthren-17-yl)-2-oxoethoxy)hexanoyl)piperazine-1-carbonyl)-4-fluorobenzyl)phthalazin-1(2H)-one] | 6.00 to 7.00 | 8.00 to 9.00 | – | – | –
